Measurements from paper PMC10116469 (Nature Communications, 2023).

Key:
[1] = molecular target: MPXV VP39 2′-O-RNA methyltransferase (Monkeypox virus, UniProt A0A7H0DN74); experiment: biochemical
[2] = test system: SARS-CoV-2 nsp14 N7-MTase; details: cited from earlier work
[3] = IC50, individual fit of data set 1
[4] = IC50, individual fit of data set 2
[5] = IC50 average (averaged IC50 values from independent measurement)

MPXV VP39 2′-O-RNA methyltransferase, sequence (A0A7H0DN74 whole entry, looked up): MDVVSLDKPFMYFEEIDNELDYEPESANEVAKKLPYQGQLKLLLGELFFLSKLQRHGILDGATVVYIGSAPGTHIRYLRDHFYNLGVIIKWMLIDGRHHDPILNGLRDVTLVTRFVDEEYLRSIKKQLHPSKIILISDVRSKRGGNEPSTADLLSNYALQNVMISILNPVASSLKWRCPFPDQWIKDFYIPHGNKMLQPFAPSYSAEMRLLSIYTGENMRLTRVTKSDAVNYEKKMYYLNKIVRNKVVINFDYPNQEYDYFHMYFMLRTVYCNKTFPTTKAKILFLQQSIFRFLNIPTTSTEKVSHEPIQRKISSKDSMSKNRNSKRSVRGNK

| SMILES | HillSlope, individual fit of data set 1 [1] | HillSlope, individual fit of data set 2 [1] | LogIC50, fit of all data points [1] | LogIC50, individual fit of data set 1 [1] | LogIC50, individual fit of data set 2 [1] | IC50 ([1]; IC50 (mean ± SEM)) [nM] | IC50 ([1]; IC50, fit of all data points) [nM] | IC50 [1, 3] [nM] | IC50 [1, 4] [nM] | IC50 [1, 5] [nM] | inhibition of SARS-CoV-2 nsp14 [2] | IC50 ([1]; IC50) [nM] |
| --- | --- | --- | --- | --- | --- | --- | --- | --- | --- | --- | --- | --- |
| Nc1ncnc2c1c(C#Cc1ccccc1)cn2[C@@H]1O[C@H](CSCC[C@H](N)C(=O)O)[C@@H](O)[C@H]1O [TO427] | -1.507 | -1.605 | -0.9412 | -0.9395 | -0.9422 | 115 ± 0.4 | 114 | 115 | 114 | 115 |  |  |
| Nc1ncnc2c1c(C#Cc1cccc3ccccc13)cn2[C@@H]1O[C@H](CSCC[C@H](N)C(=O)O)[C@@H](O)[C@H]1O [TO494] | -1.676 | ~ -5.860 | -0.9386 | -1.017 | ~ -0.7109 |  | 115 | 96.1 |  | 145 |  |  |
| Nc1ncnc2c1c(C#Cc1nc3ccccc3[nH]1)cn2[C@@H]1O[C@H](CSCC[C@H](N)C(=O)O)[C@@H](O)[C@H]1O [TO500] | -1.441 | -1.353 | -0.7728 | -0.7814 | -0.7635 |  | 169 | 165 | 172 | 169 |  |  |
| Nc1ncnc2c1c(C#Cc1ccc3ccccc3c1)cn2[C@@H]1O[C@H](CSCC[C@H](N)C(=O)O)[C@@H](O)[C@H]1O [TO504] | -1.768 | -1.833 | -1.107 | -1.131 | -1.08 |  | 78.1 | 73.9 | 83.2 | 79 |  |  |
| Nc1ncnc2c1c(C#Cc1cnc3ccccc3c1)cn2[C@@H]1O[C@H](CSCC[C@H](N)C(=O)O)[C@@H](O)[C@H]1O [TO507] | -1.446 | -1.972 | -0.9412 | -0.9877 | -0.8836 |  | 114 | 103 | 131 | 117 | nanomolar inhibitors |  |
| CCc1cn([C@@H]2O[C@H](CSCC[C@H](N)C(=O)O)[C@@H](O)[C@H]2O)c2ncnc(N)c12 [TO1111] | -1.277 | -1.517 | -1.058 | -1.122 | -0.9871 |  | 87.5 | 75.5 | 103 | 89 |  |  |
| C=Cc1cn([C@@H]2O[C@H](CSCC[C@H](N)C(=O)O)[C@@H](O)[C@H]2O)c2ncnc(N)c12 [TO1116] | -0.9545 | -1.033 | -0.836 | -0.8617 | -0.8127 |  | 146 | 138 | 154 | 146 |  |  |
| Nc1ncnc2c1c(I)cn2[C@@H]1O[C@H](CSCC[C@H](N)C(=O)O)[C@@H](O)[C@H]1O [TO1119] | -1.304 | -1.575 | -0.8937 | -0.9194 | -0.8669 |  | 128 | 120 | 136 |  |  | 128 |
| Nc1ncnc2c1ncn2[C@@H]1O[C@H](C[C@@H](N)CC[C@H](N)C(=O)O)[C@@H](O)[C@H]1O [sinefungin, reference compound] | -0.961 | -0.8657 | 0.3693 | 0.3792 | 0.3552 |  | 2340 | 2390 | 2270 | 2330 |  | 2300 |
